Experimental data published in article PMC6522510 (Nature Communications, 2019).

Assays:
Test in all cases: cells
Design in all cases: species or system AML cell lines (8); Secondary HTS, 10-point dose-response in triplicate, Cell Titer Glo viability, four-parameter fit EC50
[1] = system: MOLM-13; conditions: Homo sapiens, MOLM-13, 72 h, read-out: MOLM-13
[2] = system: M07e; conditions: M-07e, 72 h, read-out: M07e
[3] = system: ML-2; conditions: Homo sapiens, ML-2, 72 h, read-out: ML-2
[4] = system: MV4-11; conditions: Homo sapiens, MV4-11, 72 h, read-out: MV4-11
[5] = system: U937; conditions: Homo sapiens, U-937, 72 h, read-out: U937
[6] = system: CMS; conditions: 72 h, read-out: CMS
[7] = system: CMK; conditions: Homo sapiens, CMK, 72 h, read-out: CMK
[8] = system: CHRF288-11; conditions: 72 h, read-out: CHRF288-11

SMILES	EC50 [1] [µM]	EC50 [2] [µM]	EC50 [3] [µM]	EC50 [4] [µM]	EC50 [5] [µM]	EC50 [6] [µM]	EC50 [7] [µM]	EC50 [8] [µM]
OC[C@H]1O[C@@H](n2cnc3c2NC=NC[C@H]3O)C[C@@H]1O [PENTOSTATIN]	> 10	> 10	> 10	> 10	> 10	> 10	> 10	> 10
CCCCCCCCCCCCCCCCCCOP(=O)([O-])OC1CC[N+](C)(C)CC1 [PERIFOSINE]	> 10	> 10	> 10	> 10	> 10	> 10	> 10	> 10
CCCC(=O)OCOC(=O)C(C)(C)C [PIVANEX]	> 10	> 10	> 10	> 10	> 10	> 10	> 10	> 10
CC(C)(C(=O)NCC(F)(F)C(F)(F)F)C(=O)N[C@@H]1C(=O)Nc2ccccc2-c2ccccc21 [RO-4929097]	> 10	> 10	> 10	> 10	> 10	> 10	> 10	> 10
CC(C)c1nc(N(C)S(C)(=O)=O)nc(-c2ccc(F)cc2)c1/C=C/[C@@H](O)C[C@@H](O)CC(=O)O [ROSUVASTATIN]	> 10	> 10	> 10	> 10	> 10	> 10	> 10	> 10
CNCc1ccc(-c2[nH]c3cc(F)cc4c3c2CCNC4=O)cc1 [RUCAPARIB]	> 10	> 10	> 10	> 10	> 10	> 10	> 10	> 10
CC(C)=CCC/C(C)=C/CC/C(C)=C/CSc1ccccc1C(=O)O [SALIRASIB]	> 10	> 10	> 10	> 10	> 10	> 10	> 10	> 10
CCn1c(=O)c(-c2cc[nH]n2)cc2c(C)nc(N)nc21 [SAR245409]	> 10	> 10	> 10	> 10	> 10	> 10	> 10	> 10
NC(=O)c1ccc(-c2nc(-c3ccc4c(c3)OCO4)c(-c3ccccn3)[nH]2)cc1 [SB-431542]	> 10	> 10	> 10	> 10	> 10	> 10	> 10	> 10
Nc1ncnc2c1ncn2[C@@H]1O[C@H](C[C@@H](N)CC[C@H](N)C(=O)O)[C@@H](O)[C@H]1O [SINEFUNGIN]	> 10	> 10	> 10	> 10	> 10	> 10	> 10	> 10
O=C1NC(=O)/C(=C/c2cccc(C(F)(F)F)c2)S1 [SJ000006739, SMI-4A]	> 10	> 10	> 10	> 10	> 10	> 10	> 10	> 10
CCOC(=O)c1cc2ccccc2nc1C [SJ000025189, MC-1626]	> 10	> 10	> 10	> 10	> 10	> 10	> 10	> 10
Cc1ccc(S(=O)(=O)n2c(N)nc3ccccc32)cc1 [SJ000042554, NODINITIB-1]	> 10	> 10	> 10	> 10	> 10	> 10	> 10	> 10
O=C(c1ccc(Cl)cc1Cl)n1nnc2ccccc21 [SJ000142379, ITSA1]	5.3	> 10	6.2	> 10	> 10	> 10	> 10	6.1
Nc1ncn([C@@H]2O[C@H](CO)[C@@H](O)[C@H]2O)c(=O)n1 [SJ000285227, 5-AZACYTIDINE]	4.5	> 10	> 10	> 10	> 10	6.83	8	> 10
CC(C)(C)c1ccc(S(=O)(=O)/C=C/C#N)cc1 [SJ000287676, BAY 11-7085]	1.5	3.2	1	1.4	0.93	3.1	3.9	1.4
O=C1Nc2ccc(I)cc2/C1=C/c1cc(Br)c(O)c(Br)c1 [SJ000287883, GW 5074]	> 10	> 10	> 10	> 10	> 10	> 10	> 10	> 10
O=c1[nH]c2ccccc2c2ccccc12 [SJ000288131, 6(5H)-PHENANTHRIDINONE]	2	> 10	2.7	> 10	> 10	> 10	> 10	2.3
COc1cccc(-c2cc(=O)c3ccccc3o2)c1N [SJ000288145, PD 98059]	> 10	> 10	> 10	> 10	> 10	> 10	> 10	> 10
N#CC(=C(/N)Sc1ccccc1N)/C(C#N)=C(\N)Sc1ccccc1N [SJ000288250, U0126]	> 10	> 10	> 10	> 10	> 10	> 10	> 10	> 10
CCc1c2c(nc3ccc(O)cc13)-c1cc3c(c(=O)n1C2)COC(=O)[C@]3(O)CC [SJ000311679, SN-38]	0.0056	0.0445	0.00251	0.24	0.0372	> 10	0.0232	0.00949
COCCCn1c(N)c(C(=O)NC2CCCC2)c2nc3ccccc3nc21 [SJ000479457, CAY10591]	> 10	> 10	> 10	> 10	> 10	> 10	> 10	> 10
COc1cc2ncnc(-n3nc(-c4ccccn4)nc3N)c2cc1OC [SJ000510891, CP-466722]	> 10	0.63	> 10	> 10	> 10	> 10	> 10	> 10
CO[C@H]1/C=C\C=C(/C)C(=O)NC2=CC(=O)C(NCCN(C)C)=C(C[C@@H](C)C[C@H](OC)[C@H](O)[C@@H](C)/C=C(\C)[C@@H]1OC(N)=O)C2=O [SJ000534765, 17-DMAG]	0.039	2	0.046	0.044	0.025	0.092	0.75	0.52
CC(/C=C/C(=O)NO)=C\[C@@H](C)C(=O)c1ccc(N(C)C)cc1 [SJ000534770, TRICHOSTATIN A]	0.0771	0.09	0.114	0.042	0.0364	0.0442	0.047	0.0434
C/C(=C\C(=O)Nc1ccccc1C(=O)O)c1ccc2ccccc2c1 [SJ000565230, BIBR-1532]	7.7	> 10	> 10	> 10	> 10	> 10	> 10	5
COc1cc(N2CCC(N3CCN(C)CC3)CC2)ccc1Nc1ncc(Cl)c(Nc2ccccc2S(=O)(=O)C(C)C)n1 [SJ000565231, NVP-TAE684]	0.29	3.8	0.36	0.25	> 10	> 10	0.46	3.6
Cc1ccccc1-n1c(Cn2cnc3c(N)ncnc32)nc2cccc(C)c2c1=O [SJ000571308, IC-87114]	> 10	> 10	> 10	> 10	> 10	> 10	> 10	> 10
Oc1cccc(-c2nc(N3CCOCC3)c3oc4ncccc4c3n2)c1 [SJ000574285, PIK 103]	0.94	> 10	> 10	1.5	0.41	> 10	3.2	> 10
